Data published in article PMC6696373 (Molecules, 2019).
Entries after “also recorded” stand apart in the source; their conditions may differ. Where no end group is shown, it is not given here.

Legend:
[1] = tested on: Caco-2 cell monolayers; conditions: cited from earlier work
Description: To elucidate the transepithelial transport pathway of WGAPSL, some inhibitors, such as cytochalasin D, wortmannin, sodium azide, and Gly-Pro, were added to Caco-2 cell monolayers (Figure 4).

[2] = tested on: Caco-2 cell monolayers; conditions: cited from earlier work; remark: listed apart in the source
Description: The apparent permeability coefficient (Papp) value reflects the velocity of passage through the epithelium.

[3] = Caco-2 cell monolayers in HBSS, apical (AP) and basolateral (BL) sides; conditions: human, 37 °C, up to 120 min
[4] = tested on: 1:10,000 pepsin, then 1:250 trypsin; test: simulated gastrointestinal digestion: pepsin in HBSS at pH 2.0, then trypsin at pH 7.5; conditions: 37 °C, up to 90 min (pepsin) then 4 h (trypsin)
[5] = CCK-8 cytotoxicity assay; format: cell-based, human; conditions: human, Caco-2, 10 mM peptide in DMEM, 2 h incubation then 4 h with CCK-8, 37 °C, absorbance, three replications, read-out: Survival rate of Caco-2 cells
Description: (§1) The effects of the WGAPSL peptide on Caco-2 cell proliferation were observed using the CCK-8 cell counting kit (Dojindo, Japan). The WST-8 (2-(2-methoxy-4-nitrophenyl)-3-(4-nitrophenyl)-5-(2,4-disulfophenyl)-2H-tetrazolium, monosodium salt) reagent was used based on the kit specifications. Caco-2 cells were plated in 96-well culture plates in a final volume of 100 μL/well of culture medium (1 × 10^5 cells/well) at 37 °C in 5% CO2 for 24 h and incubated with 1–10 mM WGAPSL (diluted in DMEM) or DMEM only for 2 h, followed by incubation with 10 μL CCK-8 and incubation for another 4 h and then the absorbance was measured.

[6] = tested on: Caco-2 cells; test: CCK-8 cytotoxicity assay; format: cell-based, human; conditions: 2 h incubation then 4 h with CCK-8, 37 °C, absorbance, three replications
Description: as §1

[7] = tested on: pepsin and trypsin; test: Simulated gastrointestinal digestion (two-stage pepsin then trypsin hydrolysis); format: in vitro ADME; conditions: 1 mg/mL in HBSS, pepsin pH 2.0, E/S 1:50 w/w, 37 °C, 90 min, then trypsin pH 7.5, E/S 1:50 w/w, 4 h, LC-MS, mean ± spread
Description: Simulated gastrointestinal digestion was done based on the method of Quirós et al.. Synthetic peptide (1 mg/mL) was prepared in HBSS and acidified with HCl to reach pH 2.0, then hydrolyzed with 1:10,000 pepsin at an enzyme/substrate ratio of 1:50 (w/w), and incubated in constant temperature water oscillation at 37 °C for 90 min with a low shaking rate (120 rpm). After gastric digestion, samples were adjusted to pH 7.5 with saturated NaHCO3 and 1:250 trypsin was added at an enzyme/substrate ratio of 1:50 (w/w), and incubated in constant temperature water oscillation at 37 °C for 4 h with a low shaking rate (120 rpm). Reactions were stopped in a boiling water bath for 10 min. Digested samples were centrifuged (3K15, SIGMA Laborzentrifugen GmbH, Germany) at 30,000× g at 4 °C for 20 min and diluted 100 times to analyze peptide concentrations using liquid chromatography-tandem mass spectrometry (LC-MS, 1200, Agilent, CA, USA).

[8] = tested on: Caco-2 cell monolayers; test: Transepithelial transport across Caco-2 cell monolayers; format: in vitro ADME, human; conditions: concluded from the efflux ratio in Caco-2 monolayers
Description: Caco-2 cells were obtained from China Infrastructure of Cell Line Resource (Beijing, China) and were cultured based on the method of Zhang et al.. Cells were cultured in MEM containing 10% fetal bovine serum, 1 mM nonessential amino acid solution, 1% penicillin-streptomycin, and 1% HEPES buffer. Caco-2 cells were seeded at 5 × 10^5 cells/mL in 25 cm^2 tissue culture flasks, and incubated at 37 °C in 5% CO2 with 95% humidity. The passage number of the cells used in the study was between 30 and 40. The medium in cell cultures were replaced every two days and detached from 70–80% confluency using 0.05% trypsin and 0.02% Ethylene Diamine Tetraacetic Acid (EDTA) solution. For the transport experiments, Caco-2 cells were seeded into a collagen-coated transwell plate (6.5 mm diameter, 0.4 μm pore size Corning Costar) at a density of 1 × 10^5 cells/well. […]
The bilateral transport experiments also assessed transport from the BL to AP side. […]
The Papp values were calculated as follows (Equation (1)):(1) Papp=dQ/dt×1/A×1/C0 where dQ/dt is the permeability rate (mmol/s); A is the membrane area (cm^2); and C0 is the initial concentration of peptide solution in the donor chamber (mM). […]
A standard curve was prepared with a synthetic peptide diluted in HBSS, and the peptide concentrations were 0–3.9 μM. The curve was analyzed as indicated above for the BL samples. […]

[9] = tested on: Caco-2 cell monolayers; test: Effects of transport pathway inhibitors on peptide transport in Caco-2 cell monolayers; format: in vitro ADME, human; conditions: Caco-2 AP→BL, 2 mM in HBSS pH 7.4, 120 min, LC-MS
Description: Prior to transport experiments, Caco-2 cell monolayers were gently rinsed with HBSS, and then incubated for 30 min at 37 °C in 5% CO2. Afterwards, HBSS was drawn from both the AP side and BL side of all wells. HBSS (0.1 mL) with 2 mM WGAPSL was added to the AP side and 0.6 mL of fresh HBSS was added to the BL side. All transwell plates were incubated at 37 °C in 5% CO2 for 30, 60, 90, or 120 min. The transport experiment was done in triplicate for three consecutive days after 21 days, in which the cell model was developed.
Four inhibitors, including transport inhibitors cytochalasin D (a cell tight junction disruptor, 0.5 μg/mL), wortmannin (transcytosis inhibitor, 500 nM), sodium azide (ATP synthesis inhibitor, 10 mM), and Gly-Pro (transport peptide PepT 1 substrate, 10 mM) were applied to identify the transport routes of the peptide. After 120 min, the concentration of the peptide was determined in the basolateral samples [6].
Analysis of AP and BL samples gathered after the transport of WGAPSL across Caco-2 cells was performed by Agilent LC-MS (6420 Triple Quad, […]). A symmetrical 4.6 × 250 mm C18 column (GL Sciences, Tokyo, Japan) was used for fragments separations. The analysis was done in the MS Scan mode, and the injection volume was set to 20 μL. The peptide was applied in formic acid as an organic regulator to improve the MS signal of the peptide. Solvents A and B were formic acid/milli Q water (0.1:100, v/v) and formic acid/acetonitrile (0.1:100, v/v). For WGAPSL, the sample elution was run at 0.7 mL/min using a linear gradient of solvent B in A from 18% to 43% for 25 min, 43–100% for 5 min, and 100–18% for 10 min to equalize the column. The accumulation and ionization conditions in the ion trap were optimized automatically, and the target mass of the molecular ion was as follows: m/z 630.633 (WGAPSL).

Gln-Ile-Gly-Leu-Phe [QIGLF]
Change of Papp value after cytochalasin D treatment [1]: significantly (p < 0.05) increased

Val-Pro-Pro [VPP]
Papp value [2]: 5e-09 cm/s

WGAPSL
cleaved bond [3]: W-G, 120 min; also recorded: P-S, 120 min; also recorded: S-L, 120 min
fragment found [4]: APSL and PSL and GAPSL and WGA and WG

WGAPSL [WGAPSL, Trp-Gly-Ala-Pro-Ser-Leu]
viability at 2 h, 10000 µM [5]: 27%
Cytotoxicity for Caco-2 cells ([6]; 1 mM peptide in DMEM): non-toxic
Cytotoxicity for Caco-2 cells ([6]; 2 mM peptide in DMEM): non-toxic
Stability (intact peptide) after simulated gastric and intestinal digestion [7]: 83.9% ± 1.98
P-glycoprotein substrate status [8]: not a substrate of P-glycoprotein
Effect of wortmannin on peptide concentration (BL side) ([9]; 30 min preincubation with 500 nM wortmannin (transcytosis inhibitor)): did not significantly (p > 0.05) affect
Effect of Gly-Pro on peptide transport ([9]; 30 min preincubation with 10 mM Gly-Pro (PepT1 substrate)): not significantly (p > 0.05) decreased
Effect of sodium azide on peptide transport ([9]; 30 min preincubation with 10 mM sodium azide (ATP synthesis inhibitor)): A similar result
Increase of peptide concentration in the BL side vs control, with cytochalasin D ([9]; 30 min preincubation with cytochalasin D 0.5 μg/mL (tight junction disruptor), p < 0.05): 66%
